One may read the IC50 as the midpoint of a concentration-inhibition curve.

For one test, the target named is human recombinant P2X7 receptor (Homo sapiens (Human), UniProt Q99572). Briefly: YO-PRO assay: P2X7 receptor antagonistic activity (ATP-induced YO-PRO-1 uptake, FLIPR).
human recombinant P2X7 receptor, sequence (Q99572 whole entry): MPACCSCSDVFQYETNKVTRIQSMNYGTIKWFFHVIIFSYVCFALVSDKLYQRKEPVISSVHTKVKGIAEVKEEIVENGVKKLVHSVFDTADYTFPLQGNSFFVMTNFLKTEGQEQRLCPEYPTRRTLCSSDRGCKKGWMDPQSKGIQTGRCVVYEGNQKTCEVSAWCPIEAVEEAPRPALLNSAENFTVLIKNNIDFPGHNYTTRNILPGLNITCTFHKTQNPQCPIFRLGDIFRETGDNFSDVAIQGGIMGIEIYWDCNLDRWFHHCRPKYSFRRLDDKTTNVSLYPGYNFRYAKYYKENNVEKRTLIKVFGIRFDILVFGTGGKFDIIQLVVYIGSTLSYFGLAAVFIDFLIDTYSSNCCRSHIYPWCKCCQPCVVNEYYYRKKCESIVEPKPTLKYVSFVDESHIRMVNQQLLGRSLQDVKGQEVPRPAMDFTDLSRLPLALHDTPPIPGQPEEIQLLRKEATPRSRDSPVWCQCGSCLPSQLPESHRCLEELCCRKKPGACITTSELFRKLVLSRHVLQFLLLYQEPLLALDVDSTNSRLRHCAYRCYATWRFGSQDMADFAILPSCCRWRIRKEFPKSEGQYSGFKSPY
Details: not given
Take `[2H]C([2H])([2H])c1cc(Cl)cc(Cl)c1CNC(=O)C1COc2ncccc21` (racemic) [Example 96, rac-2,3-Dihydro-furo[2,3-b]pyridine-3-carboxylic acid 2,4-dichloro-6-trideuteromethyl-benzylamide]: the IC50 was determined as 2.7 nM.
On the same count and under the same terms, for `O=C(NCc1cccc(C(F)(F)F)c1Cl)C1CCOc2ncccc21` (racemic) [Example 40, rac-3,4-Dihydro-2H-pyrano[2,3-b]pyridine-4-carboxylic acid 2-chloro-3-trifluoromethyl-benzylamide] the value was 2.7 nM; for `O=C(NCc1ccc(F)cc1Cl)C1COc2ncccc21` (racemic) [Example 43, rac-2,3-Dihydro-furo[2,3-b]pyridine-3-carboxylic acid 2-chloro-4-fluoro-benzylamide], 86.8 nM.
The same measure, in the same setting: with `O=C(NCC1(c2ccccc2)CCCCC1)C1CCOc2ncccc21` (racemic) [Example 54, rac-3,4-Dihydro-2H-pyrano[2,3-b]pyridine-4-carboxylic acid (1-phenyl-cyclohexylmethyl)-amide] the figure was 25.8 nM.
Still for that read-out and setting: with `O=C1CC(NC(=O)C2COc3ncccc32)c2ccccc21` (racemic) [Example 88, rac-2,3-Dihydro-furo[2,3-b]pyridine-3-carboxylic acid (3-oxo-indan-1-yl)-amide] the figure was 1450 nM; with `O=C(NC1CCc2cc(Cl)ccc21)C1COc2ncccc21` (single isomer, unassigned) [Example 100, rac-2,3-Dihydro-furo[2,3-b]pyridine-3-carboxylic acid (5-chloro-indan-1-yl)-amide], 59.9 nM; with `Cc1c(Cl)cccc1CNC(=O)C1CCOc2ncccc21` (racemic) [Example 31, rac-3,4-Dihydro-2H-pyrano[2,3-b]pyridine-4-carboxylic acid 3-chloro-2-methyl-benzylamide], 16 nM.
Turning to `O=C(NCC(c1cnc(C(F)(F)F)nc1)N1CCOCC1)C1COc2ncccc21` (single isomer, unassigned) [Example 60, rac-2,3-Dihydro-furo[2,3-b]pyridine-3-carboxylic acid [2-morpholin-4-yl-2-(2-trifluoromethyl-pyrimidin-5-yl)-ethyl]-amide], the IC50 was determined as 29 nM.
Still for that read-out and setting: with `O=C(NCCCc1ccc(Cl)cc1Cl)C1COc2ncccc21` (racemic) [Example 106, rac-2,3-Dihydro-furo[2,3-b]pyridine-3-carboxylic acid [3-(2,4-dichloro-phenyl)-propyl]-amide] the figure was 346 nM; with `O=C(NCCc1ccc(Cl)cc1Cl)C1COc2ncccc21` (racemic) [Example 49, rac-2,3-Dihydro-furo[2,3-b]pyridine-3-carboxylic acid [2-(2,4-dichloro-phenyl)-ethyl]-amide], 157 nM.

Still in this test, the particulars now being: read-out: IC50 [nM], antagonistic activities with respect to the P2X7 receptor; HEK-293 cells expressing human recombinant P2X7 receptor; YO-PRO-1 fluorescence; ATP 250 μM, 90 minutes; highest concentration 10 μM.
Regarding `O=C(NCc1c(Cl)cc(Cl)cc1Br)C1COc2ncccc21` (single isomer, unassigned) [Example 80, 2,3-Dihydro-furo[2,3-b]pyridine-3-carboxylic acid 2-bromo-4,6-dichloro-benzylamide], the IC50 is 4.1 nM.
The same measure, in the same setting: for `O=C(N[C@@H]1CCCc2cccc(Cl)c21)C1COc2ncccc21` (stereo partly drawn) [Example 112, 2,3-Dihydro-furo[2,3-b]pyridine-3-carboxylic acid ((R)-8-chloro-1,2,3,4-tetrahydro-naphthalen-1-yl)-amide] the value was 9.5 nM; for `O=C(N[C@H](CO)C1CCCCC1)C1COc2ncccc21` (single isomer, unassigned) [Example 2], 106 nM; for `O=C(N[C@@H]1CCCc2ccccc21)C1COc2ncccc21` (stereo partly drawn) [Example 108, 2,3-dihydrofuro[2,3-b]pyridine-3-carboxylic acid ((R)-1,2,3,4-tetrahydronaphthalen-1-yl)-amide], 191 nM.
On the same count and under the same terms, for `Cc1cc(Cl)cc(Cl)c1CNC(=O)C1COc2ncccc21` (single isomer, unassigned) [Example 4, 2,3-Dihydro-furo[2,3-b]pyridine-3-carboxylic acid 2,4-dichloro-6-methyl-benzylamide] the value was 2.9 nM.

(Values after US9409917B2, “Heterocyclic amide derivatives as P2X7 receptor antagonists” (ACTELION PHARMACEUTICALS LTD., priority 2012, dated 2016).)
